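Five compound concentrations were applied to cells in 96-well plates for 48 hours; endpoints were derived by simple linear interpolation of the resulting dose-response curve. GI50: concentration for 50% inhibition of growth.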 Activity calls are given as the source filed them. No stated cut-off is given here; in the data, active = GI50 up to about 1.1 µM and inactive = higher.
Tests used:
Test in all cases: inhibition of tumour cell growth, NCI panel, 48 h
[1] = system: A498
[2] = system: A549
[3] = system: CAKI-1
[4] = system: CCRF-CEM
[5] = system: COLO 205
[6] = system: DLD-1
[7] = system: DMS-114
[8] = system: DMS-273
[9] = system: EKVX
[10] = system: HCC 2998
[11] = system: HCT-116
[12] = system: HCT-15
[13] = system: HL-60
[14] = system: HOP-18
[15] = system: HOP-62
[16] = system: HOP-92
[17] = system: HT-29
[18] = system: IGROV-1
[19] = system: K562
[20] = system: KM-20L2
[21] = system: KM12
[22] = system: LOX IMVI
[23] = system: M19-MEL
[24] = system: MCF7
[25] = system: MOLT-4
[26] = system: Malme-3M
[27] = system: NCI-H226
[28] = system: NCI-H23
[29] = system: NCI-H460
[30] = system: NCI-H522
[31] = system: NCI/ADR-RES
[32] = system: OVCAR-3
[33] = system: OVCAR-4
[34] = system: OVCAR-5
[35] = system: OVCAR-8
[36] = system: RPMI-8226
[37] = system: RXF 393
[38] = system: SF-268
[39] = system: SF-295
[40] = system: SF-539
[41] = system: SK-MEL-28
[42] = system: SK-MEL-2
[43] = system: SK-MEL-5
[44] = system: SK-OV-3
[45] = system: SN12C
[46] = system: SNB-19
[47] = system: SNB-75
[48] = system: SNB-78
[49] = system: SW-620
[50] = system: U-251
[51] = system: UACC-257
[52] = system: UACC-62
[53] = system: UO-31
[54] = system: XF498

CN(C)C(CN)CC1=C(CC(CN)N(C)C)CCC1 (centres undefined) was tested, and the GI50 [1] was > 100 µM (inactive), the GI50 [2] was > 100 µM (inactive) and the GI50 [3] was > 100 µM (inactive). The GI50 [4] was > 100 µM (inactive), the GI50 [5] was > 100 µM (inactive) and the GI50 [6] was > 100 µM (inactive). The GI50 [7] was > 100 µM (inactive), the GI50 [8] was > 100 µM (inactive) and the GI50 [9] was > 100 µM (inactive). For the same compound, the GI50 [10] was > 100 µM (inactive), the GI50 [11] was > 100 µM (inactive) and the GI50 [12] was greater than 100 µM. The GI50 [13] was > 100 µM (inactive), the GI50 [14] was > 100 µM (inactive) and the GI50 [15] was > 100 µM (inactive). For the same compound, the GI50 [16] was > 100 µM (inactive), the GI50 [17] was > 100 µM (inactive) and the GI50 [18] was > 100 µM (inactive). For the same compound, the GI50 [19] was > 100 µM (inactive), the GI50 [20] was > 100 µM (inactive) and the GI50 [21] was > 100 µM (inactive). For the same compound, the GI50 [22] was > 100 µM (inactive), the GI50 [23] was > 100 µM (inactive) and the GI50 [24] was > 100 µM (inactive). The GI50 [25] was > 100 µM (inactive), the GI50 [26] was > 100 µM (inactive) and the GI50 [27] was > 100 µM (inactive). The GI50 [28] was > 100 µM (inactive), the GI50 [29] was > 100 µM (inactive) and the GI50 [30] was > 100 µM (inactive). The GI50 [31] was > 100 µM (inactive), the GI50 [32] was > 100 µM (inactive) and the GI50 [33] was > 100 µM (inactive). The GI50 [34] was > 100 µM (inactive), the GI50 [35] was > 100 µM (inactive) and the GI50 [36] was > 100 µM (inactive). For the same compound, the GI50 [37] was > 100 µM (inactive), the GI50 [38] was > 100 µM (inactive) and the GI50 [39] was > 100 µM (inactive). The GI50 [40] was > 100 µM (inactive), the GI50 [41] was > 100 µM (inactive) and the GI50 [42] was > 100 µM (inactive). For the same compound, the GI50 [43] was > 100 µM (inactive), the GI50 [44] was > 100 µM (inactive) and the GI50 [45] was > 100 µM (inactive). The GI50 [46] was > 100 µM (inactive), the GI50 [47] was > 100 µM (inactive) and the GI50 [48] was > 100 µM (inactive). The GI50 [49] was > 100 µM (inactive), the GI50 [50] was > 100 µM (inactive) and the GI50 [51] was > 100 µM (inactive). The GI50 [52] was > 100 µM (inactive), the GI50 [53] was > 100 µM (inactive) and the GI50 [54] was > 100 µM (inactive).
